The target in experiment [1] is T1, MYC:MAX heterodimer (MYCbHLHZip over immobilized MAXbHLHZip) (Homo sapiens, UniProt P01106).
T1 construct: MYC:MAX heterodimer formation assay based on recombinant proteins
The experiment in a line: Assay 1B MYC:MAX SPR heterodimer formation assay. The format is binding. Particulars: 100 nM MYCbHLHZip pre-mixed with compound, 25° C. As to the method:
(§1) FIG. 1: A) Microscale thermophoresis (MST) of fluorescently labeled MAX in a MYC:MAX heterodimer formation assay based on recombinant proteins. MST of labeled MAXbHLHZip after titration of Example 1 pre-incubated with 1 μM MYCbHLHZip, or with 1 μM MAXbHLHZip. Fluorescence intensity of labeled MAXbHLHZip relative DMSO was plotted against Example 1 concentration. B) Surface plasmon resonance (SPR) of MYC:MAX heterodimer formation assay. MAXbHLHZip was immobilized by an amino coupling procedure to a CM5 sensor chip. MYCbHLHZip pre-incubated with or without compound (as indicated) was injected over MAX for 180 seconds, allowed to dissociate for 240 seconds and regenerated. Reference surface (without MAXbHLHZip) subtracted sensorgrams are shown from one representative experiment. C) MYC binding response units (RU) plotted against Example 1 concentration from which an IC50 of Example 1 inhibition of MYC:MAX heterodimer formation is determined, summary of four experiments.
Assay 1B. Surface Plasmon Resonance (SPR)
The SPR method is a highly sensitive assay to determine the affinity between protein and ligand and to measure the kinetics of the interaction (see Handbook of Surface Plasmon Resonance 2nd edition, Richard B M Schasfoort (Editor), RSC 2017, ca. 500 p., hardcover, ISBN 978-1-78262-730-2). […]

Experiment [2] concerns the target T2, MYC:MAX heterodimer (MYCbHLHZip, labelled MAXbHLHZip) (Homo sapiens, UniProt P01106).
T2 construct: MYC:MAX heterodimer formation assay based on recombinant proteins
The experiment in a line: Assay 1A MYC:MAX heterodimer MST assay. The format is binding. The note with it: thermophoresis shift of 1 μM labelled MAXbHLHZip with 1 μM MYCbHLHZip. As to the method:
as §1, with “Reference surface (without MAXbHLHZip) subtracted sensorgrams are shown from one representative experiment.” left out, “experiments. […]” for “experiments.”
(§2) MST measures the movement of fluorescent labelled molecules in a microscopic temperature gradient. Changes in charge, size or of the hydration shell of the fluorescent molecule affects its migration in the temperature gradient, which can be detected by the fluorescence of the molecule (See Seidel et al., Microscale thermophoresis quantifies biomolecular interactions under previously challenging conditions, METHODS (2013)). […] Capillaries were scanned to measure initial fluorescence of compound. […]

The target in experiment [3] is T3, MAX:MAX (MAXbHLHZip) (Homo sapiens, UniProt P61244).
T3 construct: Recombinant MYC bHLHZip and MAX bHLHZip proteins were titrated
The experiment is described as follows: Assay 1A MST, labelled MAX pre-mixed with MAX instead of MYC. The format is binding. Particulars: 1 μM MAX instead of MYC. As to the method: as §1, with “Reference surface (without MAXbHLHZip) subtracted sensorgrams are shown from one representative experiment.” left out
as §2

Experiment [4] deals with non-MYCN-amplified neuroblastoma cells (SK-N-F1, SK-N-RA, SK-N-AS). The experiment is described as follows: Assay 5A neuroblastoma cell growth (WST-1), non-MYCN-amplified. The format is cell-based. As to the method:
FIG. 6: A-B) Neuroblastoma cell lines with (SK-N-DZ, Kelly and IMR-32) or without (SK-N-F1, SK-N-RA and SK-N-AS) MYCN-amplification were exposed to different concentrations of Example 1, Example 2 and control compound, respectively, for 48 hours. Cell growth and viability was estimated by measuring metabolic activity. C) Growth of TGR-1 (wt), HO15.19 (MYC knockout) and HOmyc3 (MYC reconstituted HO15.19) Rat1 fibroblasts, as measured by the WST-1 assay after treatment with Example 1. Data are shown as mean±standard deviation of 3-5 biological experiments, each with 3 technical repeats.
Assay 5A: Neuroblastoma Cell Growth
Neuroblastoma cell lines with (SK-N-DZ, Kelly and IMR-32) or without (SK-N-F1, SK-N-RA and SK-N-AS) MYCN-amplification were exposed to different concentrations of example compounds for 48 hours. Cell growth and viability was estimated by measuring metabolic activity by incubating cells in triplicates with WST-1 (Roche) in medium at 37° C. and 5% CO2 for 2 hours after which absorbance was measured with an Omega Fluostar (BMG Labtech) in a 96 well plate format.
On the technique in general: Tetrazolium assays rely on reduction of a dye to a coloured formazan, in cell work by metabolically active cells.

Where only a bound is given, the exact number is not on record here.

T2 sequence (P01106 368-449 limits assumed, one chain of several): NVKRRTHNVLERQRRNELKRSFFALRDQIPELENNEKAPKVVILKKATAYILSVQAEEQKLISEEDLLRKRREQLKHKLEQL
T1 sequence (P01106 368-449 limits assumed, one chain of several): as above
T3 sequence (P61244 22-102): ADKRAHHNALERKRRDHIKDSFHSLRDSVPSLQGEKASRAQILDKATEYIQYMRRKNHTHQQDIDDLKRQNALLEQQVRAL

Take `CCOc1ccc2nc3cc(/N=N/c4ccc(N)nc4N)ccc3c(N)c2c1` [Example 1, 3-((9-amino-7-ethoxyacridin-3-yl)diazenyl)pyridine-2,6-diamine sulphate hydrate]: the IC50 – broadly, the concentration that inhibits the measured activity by half – in experiment [1] is 3.8 µM. In experiment [2], the Kd (usually the equilibrium constant for the complex coming apart) was 4.3 µM. The “effect on labelled MAX thermophoresis when pre-mixed with MAX” value in experiment [3] was “minor effects”. Also, the GI50 (as a rule, the concentration that inhibits growth by half) is more than 20 µM in experiment [4] (Homo sapiens, SK-N-AS, 48 h, first run); more than 25 µM in experiment [4] (Homo sapiens, SK-N-AS, second run); more than 25 µM in experiment [4] (first run, 48 hours, sulphate hydrate).

The values are drawn from patent publication US11896589B2, “Diazinyl amino acridines and medical uses thereof” (MyCural Therapeutics AB, priority 2018, dated 2024).
